In ChEMBL document CHEMBL4043123, “α-Geminal disubstituted pyrrolidine iminosugars and their C-4-fluoro analogues: Synthesis, glycosidase inhibition and molecular docking studies” (Bioorg Med Chem, 2017):
Active and inactive are the calls of the source. The rule behind the calls is not given here.

Columns and labels:
[1] = test system: Escherichia coli; assay: Inhibition of Escherichia coli beta-galactosidase at 1 mM pre-incubated for 1 hr followed by p-nitrophenyl-beta-D-galactopyranoside substrate addition by fluorescence detection based assay
[2] = biological target: T1, Alpha-mannosidase (Canavalia ensiformis) (UniProt C0HJB3); assay: Inhibition of jack beans alpha-mannosidase […] at 1 mM pre-incubated for 1 hr followed by […] substrate addition by fluorescence detection based assay
T1 sequence (whole entry): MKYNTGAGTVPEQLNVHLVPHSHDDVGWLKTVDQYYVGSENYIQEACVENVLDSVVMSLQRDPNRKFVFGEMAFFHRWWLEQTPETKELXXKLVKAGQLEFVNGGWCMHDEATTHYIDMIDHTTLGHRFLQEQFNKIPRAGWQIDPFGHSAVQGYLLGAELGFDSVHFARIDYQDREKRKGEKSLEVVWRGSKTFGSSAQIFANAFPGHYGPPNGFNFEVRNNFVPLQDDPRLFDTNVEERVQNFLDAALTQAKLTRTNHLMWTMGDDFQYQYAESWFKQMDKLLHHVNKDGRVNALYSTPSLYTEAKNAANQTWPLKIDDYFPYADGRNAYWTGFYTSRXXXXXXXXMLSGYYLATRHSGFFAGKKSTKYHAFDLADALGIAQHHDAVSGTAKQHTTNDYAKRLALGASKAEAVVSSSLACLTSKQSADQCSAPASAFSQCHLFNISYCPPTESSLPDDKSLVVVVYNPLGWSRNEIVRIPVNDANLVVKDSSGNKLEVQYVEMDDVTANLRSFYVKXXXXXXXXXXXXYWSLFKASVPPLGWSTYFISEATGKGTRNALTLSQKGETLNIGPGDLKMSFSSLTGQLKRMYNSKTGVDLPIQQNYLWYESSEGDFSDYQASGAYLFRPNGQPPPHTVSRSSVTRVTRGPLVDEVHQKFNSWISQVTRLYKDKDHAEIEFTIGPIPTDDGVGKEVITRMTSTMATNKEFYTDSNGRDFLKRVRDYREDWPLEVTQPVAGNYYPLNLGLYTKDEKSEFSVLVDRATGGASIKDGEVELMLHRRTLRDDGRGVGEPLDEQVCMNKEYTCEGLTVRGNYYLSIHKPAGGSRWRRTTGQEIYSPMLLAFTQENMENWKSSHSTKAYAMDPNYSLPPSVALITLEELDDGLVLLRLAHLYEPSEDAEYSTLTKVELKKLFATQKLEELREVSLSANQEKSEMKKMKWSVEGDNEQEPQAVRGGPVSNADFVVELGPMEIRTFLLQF

[3] = test system: Saccharomyces cerevisiae; assay: Inhibition of yeast alpha-glucosidase at 1 mM pre-incubated for 1 hr followed by p-nitrophenyl-alpha-D-glucopyranoside substrate addition by fluorescence detection based assay
[4] = Inhibition of rice alpha-glucosidase pre-incubated for 1 hr followed by p-nitrophenyl-alpha-D-glucopyranoside substrate addition by fluorescence detection based assay; set-up: species or system Oryza sativa
[5] = biological target: Alpha-galactosidase (Coffea arabica) (UniProt Q42656); assay: Inhibition of coffee beans alpha-galactosidase at 1 mM pre-incubated for 1 hr followed by p-nitrophenyl-alpha-D-galactopyranoside substrate addition by fluorescence detection based assay
[6] = Competitive inhibition of almond beta-glucosidase pre-incubated for 1 hr followed by p-nitrophenyl-beta-D-glucopyranoside, substrate addition by fluorescence detection based assay; set-up: species or system Prunus dulcis
[7] = test system: Oryza sativa; assay: Inhibition of rice alpha-glucosidase at 1 mM pre-incubated for 1 hr followed by p-nitrophenyl-alpha-D-glucopyranoside substrate addition by fluorescence detection based assay
[8] = test system: Prunus dulcis; assay: Inhibition of almond beta-glucosidase at 1 mM pre-incubated for 1 hr followed by p-nitrophenyl-beta-D-glucopyranoside, substrate addition by fluorescence detection based assay
[9] = biological target: T2, Alpha-galactosidase (Coffea arabica, UniProt Q42656); assay: Inhibition of coffee beans alpha-galactosidase pre-incubated for 1 hr followed by p-nitrophenyl-alpha-D-galactopyranoside substrate addition by fluorescence detection based assay
[10] = Inhibition of almond beta-glucosidase pre-incubated for 1 hr followed by p-nitrophenyl-beta-D-glucopyranoside, substrate addition by fluorescence detection based assay; set-up: species or system Prunus dulcis
[11] = biological target: T2, Alpha-galactosidase; assay: Competitive inhibition of coffee beans alpha-galactosidase pre-incubated for 1 hr followed by p-nitrophenyl-alpha-D-galactopyranoside substrate addition by fluorescence detection based assay
[12] = Inhibition of yeast alpha-glucosidase pre-incubated for 1 hr followed by p-nitrophenyl-alpha-D-glucopyranoside substrate addition by fluorescence detection based assay; set-up: species or system Saccharomyces cerevisiae
[13] = Competitive inhibition of Escherichia coli beta-galactosidase pre-incubated for 1 hr followed by p-nitrophenyl-beta-D-galactopyranoside substrate addition by fluorescence detection based assay

Chain of Alpha-galactosidase (Coffea arabica) (Q42656 16-378 limits assumed): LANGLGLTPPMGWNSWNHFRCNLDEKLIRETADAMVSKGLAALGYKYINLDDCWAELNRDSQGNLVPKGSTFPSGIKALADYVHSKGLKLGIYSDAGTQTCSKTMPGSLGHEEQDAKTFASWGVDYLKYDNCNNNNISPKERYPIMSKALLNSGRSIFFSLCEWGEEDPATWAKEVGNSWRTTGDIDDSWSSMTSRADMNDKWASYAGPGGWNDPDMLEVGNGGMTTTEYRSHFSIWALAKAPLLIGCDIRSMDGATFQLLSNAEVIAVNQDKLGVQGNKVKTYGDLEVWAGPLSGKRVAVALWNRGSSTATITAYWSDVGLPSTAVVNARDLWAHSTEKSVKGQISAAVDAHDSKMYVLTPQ
T2 sequence (Q42656 whole entry): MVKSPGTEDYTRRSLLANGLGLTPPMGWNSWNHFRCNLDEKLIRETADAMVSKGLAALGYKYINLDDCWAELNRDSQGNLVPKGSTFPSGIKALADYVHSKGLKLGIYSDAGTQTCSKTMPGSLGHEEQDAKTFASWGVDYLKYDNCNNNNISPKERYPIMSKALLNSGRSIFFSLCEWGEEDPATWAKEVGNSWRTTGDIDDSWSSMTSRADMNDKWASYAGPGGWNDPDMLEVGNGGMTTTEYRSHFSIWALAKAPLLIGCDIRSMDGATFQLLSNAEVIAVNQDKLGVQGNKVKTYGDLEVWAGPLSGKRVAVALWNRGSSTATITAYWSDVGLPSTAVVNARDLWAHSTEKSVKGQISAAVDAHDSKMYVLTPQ

| Compound | inhibition [1] | inhibition [2] | inhibition [3] | IC50 [4] | Ki [4] | inhibition [5] | IC50 [6] | Ki [6] | inhibition [7] | inhibition [8] | IC50 [9] | Ki [9] | IC50 [10] | Ki [10] | IC50 [11] | Ki [11] | IC50 [12] | Ki [12] | IC50 [13] | Ki [13] |
| --- | --- | --- | --- | --- | --- | --- | --- | --- | --- | --- | --- | --- | --- | --- | --- | --- | --- | --- | --- | --- |
| OCC1(CO)NC[C@H](F)[C@H]1O | inactive | inactive | inactive | 463000 nM | 376000 nM | inactive | 184 nM | 144 nM |  |  |  |  |  |  |  |  |  |  |  |  |
| O=C(O)[C@@]1(CO)NC[C@H](F)[C@H]1O | inactive | inactive | inactive |  |  |  |  |  | inactive | inactive | 392000 nM | 364000 nM |  |  |  |  |  |  |  |  |
| O=C(O)[C@@]1(CO)NC[C@@H](O)[C@H]1O | inactive | inactive | inactive |  |  |  |  |  | inactive |  |  |  | 445000 nM | 349000 nM | 79 nM | 62 nM |  |  |  |  |
| O=C(O)[C@]1(CO)NC[C@@H](O)[C@H]1O | inactive | inactive |  |  |  | inactive |  |  | inactive | inactive |  |  |  |  |  |  | 763000 nM | 619000 nM |  |  |
| O=C(O)[C@]1(CO)NC[C@H](F)[C@H]1O |  | inactive | inactive |  |  | inactive |  |  | inactive | inactive |  |  |  |  |  |  |  |  | 65 nM | 51 nM |
| OCC1(CO)NC[C@@H](O)[C@H]1O | inactive | inactive | inactive |  |  |  |  |  | inactive | inactive |  |  |  |  | 16 nM | 8 nM |  |  |  |  |
| OCCN1C[C@H](O)[C@@H](O)[C@H](O)[C@H]1CO [MIGLITOL] | inactive | inactive | inactive | 50 nM | 28 nM | inactive |  |  |  | inactive |  |  |  |  |  |  |  |  |  |  |
